From patent US10285988B2, “Compounds for treatment of fibrosis diseases” (CUREGENIX, INC., priority 2013, dated 2019) come the findings set out here.

Broadly, the IC50 is the midpoint of a concentration-inhibition curve.

A value given as a limit tells only on which side of the number the result lay.

This assay has as its system WNT pathway. In words: WNT pathway reporter gene assay (NIH3T3 TCF-Luc cells co-cultured with 293 WNT3a cells). It counts as cell-based. To be noted: Mus musculus, co-culture 16 hours, luciferase luminescence reduced by 50%. On the procedure:
Materials and Methods: NIH3T3 mouse fibroblast cells (American Type Culture Collection, Manassas, Va.) were transfected with a plasmid containing a luciferase gene driven by 5 copies of TCF elements. Stale cells selected with 1 μg/mL of Zeocin (Gibco/Invitrogen, Carlsbad, Calif.) are cultured in Dulbecco's modified Eagle's medium (Invitrogen, Carlsbad, Calif.) supplemented with 10% FBS (Invitrogen), 50 unit/mL penicillin and 50 μg/mL of streptomycin (Invitrogen) at 37° C. with 5% CO2 in air atmosphere.
After 16 hours, the firefly luciferase activities are measured with the Steady-Glo™ Luciferase Assay System (Promega). The cells were treated with different concentrations of compounds of this invention during the co-culture. […] To normalize for cell quantity and viability, CellTiter Glo assay is next performed in a duplicate plate.
In general terms: Reporter assays use an easily measured gene product as a stand-in for the process of interest.

`Cc1cc(-c2ncc(CNc3nccc4cc(-c5cnccn5)ccc34)cc2C)ccn1` [Compound 70] had an IC50 of less than 3 nM. `Cc1cc(-c2ccc(CNc3nccc4cc(-c5ccnc(C)c5)ncc34)cc2)ccn1` [Compound 1, N-(4-(2-methylpyridin-4-yl)benzyl)-6-(2-methylpyridin-4-yl)-2,7-naphthyridin-1-amine] showed an IC50 of less than 3 nM.

Consider `Cc1cc(-c2cc3ccnc(NCc4ccc(-c5ccnc(F)c5)c(F)c4)c3cn2)ccn1` [Compound 28], for which the IC50 is less than 3 nM. Next, `Cc1cc(-c2cc3ccnc(NCc4ccc(-c5ccnc(C)c5)c(C)c4)c3cn2)ccn1` [Compound 2, N-(3-methyl-4-(2-methylpyridin-4-yl)benzyl)-6-(2-methylpyridin-4-yl)-2,7-naphthyridin-1-amine]: less than 3 nM; `Cc1cc(-c2ccc(CNc3nccc4cc(-c5cnccn5)ncc34)cc2)ccn1` [Compound 35]: less than 3 nM.
